Assay results: patent US7175872B2, “Pyridinium-Betain compounds for use as taste modulators” (Nestec S.A., priority 2002, dated 2007)
Entries after “also recorded” stand apart in the source; their conditions may differ. Counter-ions that a name gives are not always drawn.

Columns and labels:
Assay type in all cases: in vivo
sweet taste of sucrose = experiment: Sweet taste detection threshold of sucrose/Pyridinium-Betaine mixtures (triangle test, sensory panel); set-up: key to Threshold decrease: fold decrease of sweet threshold vs pure sucrose; conditions: equimolar mixture with sucrose; for Threshold decrease: vs sucrose in water 12.5 mmol/L
Description: • Sensory panel training: […] Sensory analyses were performed in a sensory panel room at 22-25° C. on three different sessions. • Taste thresholds: The taste thresholds of the tastants or mixtures containing basic tastants plus Pyridinium-Betains were determined in a triangle test using Evian® mineral water as the solvent at a defined pH ([…] and H.-D. Belitz, Z. Lebensm. Unters. Forsch. 1975, 159, 65-72). The samples (3 mL) were presented in order of increasing concentrations (serial 1:1 dilutions). The threshold values evaluated in two different sessions were averaged. […] The taste intensities of aqueous (Evian®) solutions containing a basic tastant, such as glucose and MSG, for example, in constant concentrations and the compounds of the general formula (A), for example […], in various concentrations were compared with those of a solution containing the basic tastant only. To achieve this, triangle tests were performed with two glass vials containing the basic tastant in constant concentrations, and one glass vial containing a stepwise 1:1-diluted mixture of basic […]. […] The relative taste strength (taste enhancing factor) of a mixture containing the basic […] was related to the basic tastants glucose, MSG, or other tastants, respectively, as standard substances, and was determined as the ratio of the concentrations c of iso-intensely tasting solutions of the basic tastant, such as glucose (glc), and the mixture containing tastant plus Pyridinium-Betain, […])=[…] This taste enhancing effect is illustrated in examples. The sweet taste thresholds of equimolar mixtures of sweet tasting compounds and various Pyridinium-Betaines were determined by a triangle test using EVIAN® mineral water as the solvent. The sensorial evaluations were performed at different pH values. The equimolar mixture of […] and sucrose at pH 7.0 was evaluated with a 4-fold lower sweet threshold concentration than pure sucrose (Table 1).

sweet taste of L-alanine = experiment: Sweet taste detection threshold of L-alanine/Pyridinium-Betaine mixtures (triangle test, sensory panel); conditions: mixture with L-alanine; for Threshold decrease: vs L-alanine in water 12.5 mmol/L
Description: • Sensory panel training: […] Sensory analyses were performed in a sensory panel room at 22-25° C. on three different sessions. • Taste thresholds: The taste thresholds of the tastants or mixtures containing basic tastants plus Pyridinium-Betains were determined in a triangle test using Evian® mineral water as the solvent at a defined pH ([…] and H.-D. Belitz, Z. Lebensm. Unters. Forsch. 1975, 159, 65-72). The samples (3 mL) were presented in order of increasing concentrations (serial 1:1 dilutions). The threshold values evaluated in two different sessions were averaged. […] The taste intensities of aqueous (Evian®) solutions containing a basic tastant, such as glucose and MSG, for example, in constant concentrations and the compounds of the general formula (A), for example […], in various concentrations were compared with those of a solution containing the basic tastant only. To achieve this, triangle tests were performed with two glass vials containing the basic tastant in constant concentrations, and one glass vial containing a stepwise 1:1-diluted mixture of basic […]. […] The relative taste strength (taste enhancing factor) of a mixture containing the basic […] was related to the basic tastants glucose, MSG, or other tastants, respectively, as standard substances, and was determined as the ratio of the concentrations c of iso-intensely tasting solutions of the basic tastant, such as glucose (glc), and the mixture containing tastant plus Pyridinium-Betain, […])=[…] […] This taste enhancing effect is illustrated in examples. Besides the two carbohydrates, the sweet amino acid L-alanine was also tested with […]. Again, the best impact on sweet taste perception was found for the mixture at pH 9.0, resulting in an 8-fold lower threshold.

salty taste of NaCl = experiment: Salt taste detection threshold of NaCl/Pyridinium-Betaine mixtures (triangle test, sensory panel); conditions: mixture with NaCl, pH 7.0
Description: • Sensory panel training: […] Sensory analyses were performed in a sensory panel room at 22-25° C. on three different sessions. • Taste thresholds: The taste thresholds of the tastants or mixtures containing basic tastants plus Pyridinium-Betains were determined in a triangle test using Evian® mineral water as the solvent at a defined pH ([…] and H.-D. Belitz, Z. Lebensm. Unters. Forsch. 1975, 159, 65-72). The samples (3 mL) were presented in order of increasing concentrations (serial 1:1 dilutions). The threshold values evaluated in two different sessions were averaged. […] The taste intensities of aqueous (Evian®) solutions containing a basic tastant, such as glucose and MSG, for example, in constant concentrations and the compounds of the general formula (A), for example […], in various concentrations were compared with those of a solution containing the basic tastant only. […] The relative taste strength (taste enhancing factor) of a mixture containing the basic […] was related to the basic tastants glucose, MSG, or other tastants, respectively, as standard substances, and was determined as the ratio of the concentrations c of iso-intensely tasting solutions of the basic tastant, such as glucose (glc), and the mixture containing tastant plus Pyridinium-Betain, […])=[…] […] This taste enhancing effect is illustrated in examples.

umami taste of MSG = experiment: Iso-intensity: relative umami taste of MSG/Alapyridaine mixtures; conditions: 1.5 mmol/kg MSG and 6.0 mmol/kg Alapyridaine vs 1.5 mmol/kg MSG
Description: • Sensory panel training: […] Sensory analyses were performed in a sensory panel room at 22-25° C. on three different sessions. • Taste thresholds: The taste thresholds of the tastants or mixtures containing basic tastants plus Pyridinium-Betains were determined in a triangle test using Evian® mineral water as the solvent at a defined pH ([…] and H.-D. Belitz, Z. Lebensm. Unters. Forsch. 1975, 159, 65-72). The samples (3 mL) were presented in order of increasing concentrations (serial 1:1 dilutions). The threshold values evaluated in two different sessions were averaged. […] The taste intensities of aqueous (Evian®) solutions containing a basic tastant, such as glucose and MSG, for example, in constant concentrations and the compounds of the general formula (A), for example […], in various concentrations were compared with those of a solution containing the basic tastant only. […] The relative taste strength (taste enhancing factor) of a mixture containing the basic […] was related to the basic tastants glucose, MSG, or other tastants, respectively, as standard substances, and was determined as the ratio of the concentrations c of iso-intensely tasting solutions of the basic tastant, such as glucose (glc), and the mixture containing tastant plus Pyridinium-Betain, […])=[…] […]

Q: For `CC(C(=O)[O-])[n+]1cc(O)ccc1CO` (centres unmarked) [Alapyridaine, N-(1-carboxyethyl)-3-hydroxy-6-hydroxymethyl-pyridinium inner salt], which Sweet detection threshold (sweet taste of sucrose; pH 5.0) is on record?
A: 3.0 mmol/kg water

Q: What about the Taste quality (sweet taste of sucrose; pH 5.0) of the same compound?
A: sour taste; also recorded: sweet/

Q: What about the Threshold decrease (sweet taste of sucrose; pH 5.0) of the same compound?
A: 4.0

Q: And the Sweet detection threshold (sweet taste of sucrose; pH 7.0)?
A: 3.0 mmol/kg water

Q: And the Taste quality (sweet taste of sucrose; pH 7.0)?
A: sweet

Q: And the Threshold decrease (sweet taste of sucrose; pH 7.0)?
A: 4

Q: And the Sweet detection threshold (sweet taste of sucrose; pH 9.0)?
A: 1.5 mmol/kg water

Q: What about the Taste quality (sweet taste of sucrose; pH 9.0) of the same compound?
A: sweet

Q: What about the Threshold decrease (sweet taste of sucrose; pH 9.0) of the same compound?
A: 8

Q: And the “reduction of the sweet threshold” value (sweet taste of L-alanine; pH 5.0)?
A: only a slight reduction

Q: What about the Sweet detection threshold (sweet taste of L-alanine; pH 6.0) of the same compound?
A: 6.0 mmol/kg water

Q: And the Taste quality (sweet taste of L-alanine; pH 6.0)?
A: sweet

Q: And the Threshold decrease (sweet taste of L-alanine; pH 6.0)?
A: 2.0

Q: What about the Sweet detection threshold (sweet taste of L-alanine; pH 7.0) of the same compound?
A: 3.0 mmol/kg water

Q: And the Taste quality (sweet taste of L-alanine; pH 7.0)?
A: sweet

Q: What about the Threshold decrease (sweet taste of L-alanine; pH 7.0) of the same compound?
A: 4

Q: And the Sweet detection threshold (sweet taste of L-alanine; pH 9.0)?
A: 1.5 mmol/kg water

Q: And the Taste quality (sweet taste of L-alanine; pH 9.0)?
A: sweet

Q: And the Threshold decrease (sweet taste of L-alanine; pH 9.0)?
A: 8

Q: What about the Salt detection threshold (salty taste of NaCl) of the same compound?
A: 2.0 mmol/kg water

Q: What about the Taste quality (salty taste of NaCl) of the same compound?
A: salty

Q: What about the Threshold decrease (salty taste of NaCl; vs NaCl in water 10.0 mmol/L) of the same compound?
A: 5.0

Q: And the “maximum umami-taste intensity (iso-intensity)” value (umami taste of MSG)?
A: 4 -fold
